Results taken from US4493785A, “Anthraquinone compounds” (Imperial Chemical Industries PLC, priority 1982, dated 1985).

How the values were obtained:
Format in all cases: physicochemical
[1] = Solubility (wt %) of the dye in liquid crystal material; details: for Solubility: liquid crystal material E 43, 20° C.
Description: (§1) (i) Order parameters, solubilities and stabilities reported in Tables I to V were measured in the liquid crystal material, E 43, which is referred to as Host B in UK Specification No. 2081736A and is available from BDH Ltd of Poole, Dorset. Measurements were made at 20° C. unless otherwise indicated.
(§2) (iii) The liquid crystal materials in Table V are:
(§3) ZLI 1695: Available from E. Merck Co, Darmstadt, W. Germany;
(§4) FBCO Ester: Host 12 of UK application No. 8205153.
(§5) (iv) In Table V "S" means order parameter and "Sol" means solubility (wt %) in the appropriate liquid crystal material.

[2] = Order parameter (S) of the dye in liquid crystal material; details: for Order Parameter (S): liquid crystal material E 43, 20° C.
Description: as §1, §2, §3, §4, §5

[3] = Stability to irradiation with 1 kW phosphor-coated mercury vapour lamp; details: E 43, 1 kW mercury vapour lamp, 30° C.
Description: as §1
(ii) Stabilities were measured as the percentage decrease in absorption at the absorption maximum after the indicated period of irradiation with a 1 kW phosphor-coated, mercury vapour lamp at 30° C.

Extinction coefficient = assay: Extinction coefficient
[4] = liquid crystal material FBCO Ester, 20° C.
[5] = liquid crystal material ZLI 1132, 20° C.
[6] = liquid crystal material ZLI 1695, 20° C.

Structure (SMILES)	Solubility [1] [wt %]	Order Parameter (S) [2]	also measured
CC(CCCc1cc(N)c2c(c1O)C(=O)c1c(O)c(CCCC(C)CC(C)(C)C)cc(N)c1C2=O)CC(C)(C)C (centres unmarked) [--C2 H4 CH(CH3)CH2 C(CH3)3, reference compound]	1.6	0.71	
CCC(CC)Cc1cc(N)c2c(c1O)C(=O)c1c(O)c(CC(CC)CC)cc(N)c1C2=O [--CH(C2 H5)2]		0.66	
CCC(C)Cc1cc(N)c2c(c1O)C(=O)c1c(O)c(CC(C)CC)cc(N)c1C2=O (centres unmarked) [--CH(CH3)CH2 CH3]		0.68	
CCCCCc1cc(N)c2c(c1O)C(=O)c1c(O)c(CCCCC)cc(N)c1C2=O [Example 1c, 2,7-Di-n-pentyl-4,5-diamino-chrysazin]	8.0	0.77	Sol (solubility) [1, 4]: 3 wt %; Sol (solubility) [1, 5]: 10.0 wt %; Sol (solubility) [1, 6]: 6.5 wt %; S (order parameter) [2, 4]: 0.69; S (order parameter) [2, 5]: 0.77; S (order parameter) [2, 6]: 0.79; Stability (percentage decrease in absorption at the absorption maximum) ([3]; 100 hr irradiation): 97%; Stability (percentage decrease in absorption at the absorption maximum) ([3]; 2000 hr irradiation): 73%
CCCCCCc1cc(N)c2c(c1O)C(=O)c1c(O)c(CCCCCC)cc(N)c1C2=O [Example 3, 2,7-Di-n-hexyl-4,5-diaminochrysazin]	4.3	0.76	
CCCCCCCCc1cc(N)c2c(c1O)C(=O)c1c(O)c(CCCCCCCC)cc(N)c1C2=O [Example 4, 2,7-di-n-octyl-4,5-diaminochrysazin]	13.0	0.73	
CNc1cc(CC(C)C)c(O)c2c1C(=O)c1c(NC)cc(CC(C)C)c(O)c1C2=O [iso-propyl, Comparative Dye, TABLE III]		0.54	
CNc1cc(CC(C)C)c(O)c2c1C(=O)c1c(N)cc(CC(C)C)c(O)c1C2=O [iso-propyl, Comparative Dye, TABLE II]		0.63	
CCCCCCCc1cc(N)c2c(c1O)C(=O)c1c(N)cc(CCCCCCC)c(O)c1C2=O [n-hexyl, Comparative Dyes (Formula B), reference compound]	< 0.01		

More lines, main results first:

Solubility [1] [wt %]	Order Parameter (S) [2]	Structure (SMILES)	also measured
5.5	0.78	CCCCCCCc1cc(N)c2c(c1O)C(=O)c1c(O)c(CCCCCCC)cc(N)c1C2=O [Example 2c, 2,7-Di-n-heptyl-4,5-diaminochrysazin]	Sol (solubility) [1, 4]: 3 wt %; Sol (solubility) [1, 5]: 7.0 wt %; S (order parameter) [2, 4]: 0.70; S (order parameter) [2, 5]: 0.78; S (order parameter) [2, 6]: 0.80; Stability (percentage decrease in absorption at the absorption maximum) ([3]; 400 hr irradiation): 92%; Stability (percentage decrease in absorption at the absorption maximum) ([3]; 2000 hr irradiation): 87%
0.5	0.68	CCCCCCCc1cc(N)c2c(c1O)C(=O)c1c(O)c(CCCCCCC)cc(NC)c1C2=O [Example 5b, 2,7-di-n-heptyl-4-amino-5-methylaminochrysazin]	extinction coefficient (Extinction coefficient; at 675 nm): 19,522
0.5	0.67	CCCCCCCc1cc(NC)c2c(c1O)C(=O)c1c(O)c(CCCCCCC)cc(NC)c1C2=O [Example 5c, 2,7-di-n-heptyl-4,5-di(methylamino)chrysazin]	extinction coefficient (Extinction coefficient; at 575 nm): 22,100
3.3	0.72	CCCCCc1cc(N)c2c(c1O)C(=O)c1c(O)c(CCCCC)cc(NC)c1C2=O [Example 6b]	extinction coefficient (Extinction coefficient; at 675 nm): 23,785
0.9	0.66	CCCCCc1cc(NC)c2c(c1O)C(=O)c1c(O)c(CCCCC)cc(NC)c1C2=O [Example 6c]	
